Reference: patent US9126999B2, “Tetrahydropyrazolopyrimidine compounds” (EISAI R&D MANAGEMENT CO., LTD., priority 2012, dated 2015)

Biological target: T1, Human TLR9 (Homo sapiens, UniProt Q9NR96)
T1 sequence (Q9NR96 26-1032): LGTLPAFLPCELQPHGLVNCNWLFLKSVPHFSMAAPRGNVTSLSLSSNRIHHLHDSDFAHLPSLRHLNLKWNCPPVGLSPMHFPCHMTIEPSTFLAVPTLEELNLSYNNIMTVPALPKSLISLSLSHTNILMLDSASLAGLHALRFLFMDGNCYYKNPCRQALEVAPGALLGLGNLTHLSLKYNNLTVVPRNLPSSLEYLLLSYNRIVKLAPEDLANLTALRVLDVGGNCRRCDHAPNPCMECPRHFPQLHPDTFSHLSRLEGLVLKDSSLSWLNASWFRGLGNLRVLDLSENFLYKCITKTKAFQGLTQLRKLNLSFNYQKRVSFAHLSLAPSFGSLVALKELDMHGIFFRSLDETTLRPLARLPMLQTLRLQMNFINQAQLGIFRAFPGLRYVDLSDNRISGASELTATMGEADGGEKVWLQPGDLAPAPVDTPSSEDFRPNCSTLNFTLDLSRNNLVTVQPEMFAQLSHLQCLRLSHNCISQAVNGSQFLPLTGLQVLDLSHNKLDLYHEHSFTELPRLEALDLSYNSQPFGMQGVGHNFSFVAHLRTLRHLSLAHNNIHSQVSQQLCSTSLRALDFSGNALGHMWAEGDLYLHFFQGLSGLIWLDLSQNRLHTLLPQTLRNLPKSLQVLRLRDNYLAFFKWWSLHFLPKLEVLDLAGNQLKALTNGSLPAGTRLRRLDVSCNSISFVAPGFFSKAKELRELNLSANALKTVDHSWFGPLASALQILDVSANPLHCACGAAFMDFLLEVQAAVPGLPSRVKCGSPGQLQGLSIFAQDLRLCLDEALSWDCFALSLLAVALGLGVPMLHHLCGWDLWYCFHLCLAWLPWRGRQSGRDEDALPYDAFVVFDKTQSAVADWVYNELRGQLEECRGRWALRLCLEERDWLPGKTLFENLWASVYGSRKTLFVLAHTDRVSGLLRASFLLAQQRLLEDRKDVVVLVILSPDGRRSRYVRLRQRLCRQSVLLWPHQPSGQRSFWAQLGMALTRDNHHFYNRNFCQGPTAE
Experiment: Human PBMC cell-based assay, CpG-ODN stimulus, IL-6 ELISA
Set-up: endogenous in cells; host or cells: primary human PBMC from healthy donor blood
Conditions: Hu PBMC; ligand CpG-ODN; analyte IL-6
Description: Human peripheral blood mononuclear cells (PBMC) were isolated from freshly-drawn heparinized (10 USP units/ml, Hospira, Lakeforest, Ill.) healthy donor whole blood by density gradient (Histopaque® 1077, Sigma, Inc., St. Louis, Mo.). Briefly, 25 ml blood was diluted with 15 ml PBS (without Ca^2+, Mg^2+) in a 50 ml conical tube, and 12 ml Histopaque was underlaid using a spinal needle. Tubes were centrifuged for 45 minutes at 1200 rpm (350×g), and PBMC were collected from the buffy coat. Cells were then washed twice in PBS, and red blood cells were lysed by suspension in 5 ml ammonium chloride solution (1× Red Blood Cell Lysis Buffer, eBioscience) for 5 minutes at room temperature. […]
Antagonist compounds solubilized and serial diluted in 100% DMSO were added in triplicate to cells to yield a final concentration of 0.1% DMSO (v/v). […] Cell culture supernatants were collected, and levels of various human cytokines were assessed as indicated by standard ELISA procedure according to the manufacturer's recommended protocol (BD Biosciences, Inc., San Diego, Calif.).

COc1ccc([C@@H]2C[C@H](C(F)(F)F)n3nc(-c4ccc(C(=O)N5CCNCC5)cc4)cc3N2)cc1OC [ER-892887, (4-((5S,7R)-5-(3,4-dimethoxyphenyl)-7-(trifluoromethyl)-4,5,6,7-tetrahydropyrazolo[1,5-a]pyrimidin-2-yl)phenyl)(piperazin-1-yl)methanone] gave an IC50 of over 10 µM.
